Columns and labels:
E. amylovora 153N = test: Fire blight on crabapples; assay type: in vivo, Snow Drift crabapple trees; conditions: for canker, in words / shoot blight incidence, in words: day 63
Method: A study of the bioefficacy of the various agrichemical compositions, including bioactive acid solutions and blends thereof with an antibiotic agrichemical, were evaluated to assess their bioefficacy against fire blight on crabapples. The study was conducted on 5 year old Snow Drift crabapple trees, with each of the compositions being applied to ten trees in two-subplots of five trees, four different times: at 100% bloom-day 1, a second application was made on day 4, a third on day 11 and a final treatment on day 19. The trees were inoculated with E. amylovora […] at a concentration of 4×10^6 cells per milliliter on day 1, following drying of the treatment, with the inoculation being repeated on day 13. Evaluation for fire blight was completed on 100 blossoms for each of the subplots on day 12, day 19 and day 27. Additionally, the incidence of shoot infection and the length of […] evaluated on day 63. The test compositions were prepared by forming solutions of the bioactive agents. Two different dilutions of the MI2 bioactive were evaluated, the first employing 94.46 ml/gallon (25 ml/l) of water (5 ppm of each metal) and the second 188.9 ml/gallon (50 ml/l) of water (10 ppm of each metal). […] Finally, copper hydroxide was diluted at a rate of 1 lb/gallon (119.8 g/l). Each of the compositions and blends were spray applied at a rate of 50 gallons (189.3 l) pre acre. The results are presented as the mean of the counts.

[1] = tested on: Saccharomycetes Cerevisiae (Fleishmann's Bakers yeast); test: Yeast growth inhibition by turbidity; assay type: cell-based; conditions: Table 12, surfactant ~0.05 wt %, neat additive, Metal 0 ppm
Method: Saccharomycetes Cerevisiae was selected as a test organism as it is generally accepted in the industry as an indicator or surrogate organism for a wide variety of fungi. In each of these experiments, the same general procedure was followed unless otherwise indicated.
Experimental Detail: A growth medium was prepared by adding 10 grams of nutrient medium (Difco Sabouraud dextrose broth from BD of Franklin Lakes, N.J., USA) to 300 ml of distilled water. Fleishmann's Bakers yeast was then added to the growth medium while mixing using a magnetic stirrer until a uniform dispersion was obtained having an initial turbidity of between about 50 and 100 NTU as measured using a HF Instruments DRT 100B Turbidity Meter. […] The system/component to be evaluated was then added to the vial and intimately shaken to ensure a good, substantially homogeneous mixture. The turbidity of each mixture was then determined and the vial transferred to an incubator at 30° C. Each vial was periodically removed from the incubator and the mixture in the vials assessed for turbidity: the specific timing for such evaluation was as set forth in the discussion of the experiments and the accompanying tables. […]
In the tables below, the results are presented as the actual turbidity readings (NTU) with a sub-table presenting the change or delta in NTU values. […]

| Compound | canker, in words (E. amylovora 153N) | shoot blight incidence, in words (E. amylovora 153N) | T0 (turbidity) [1] | Shoot Incidence (E. amylovora 153N; Day 63, rate 5 lbs/a (2.27 kg/a), mean of counts) |
| --- | --- | --- | --- | --- |
| [H]/N=C(/N)N[C@H]1[C@H](O)[C@@H](O)[C@H](O[C@@H]2O[C@@H](C)[C@](O)(C=O)[C@H]2O[C@@H]2O[C@@H](CO)[C@H](O)[C@@H](O)[C@@H]2NC)[C@@H](N/C(N)=N\[H])[C@@H]1O [streptomycin] | appeared to prevent canker | greatly reduced |  |  |
| CCCCCCCCCCCCOS(=O)(=O)[O-].[Na+] |  |  | 48 |  |
| [Cu+2].[OH-].[OH-] [copper hydroxide] | appeared to prevent canker | greatly reduced |  | 1.0 |

From patent US20080292723A1, “Bioactive acid agrichemical compositions and use thereof” (priority 2007, published 2008)
